The text below walks through data of publication PMC10126811, “The dinitrobenzamide mustard prodrugs, PR-104A and SN27686, for use in a novel MNDEPT cancer prodrug therapy approach” (Bioscience Reports, 2023).

Read-outs that look alike come from different tables or passages of the source.

A word on the Km: it is the concentration of substrate that gives half-maximal velocity.

For one experiment, the system named is T1, YfkO-cys.
T1 construct: pET28a+ His-tag plus tag of 6 N-terminal cysteines, tags kept; E. coli Rosetta pLysS; FMN-loaded; approx. 30 kDa monomer on SDS-PAGE; free enzyme
Kind of experiment: prodrug consumption at […] nm, microplate, Michaelis-Menten fit. The experiment is classed as biochemical, Bacillus licheniformis. The note with it: NADH 4 mM, 50 mM phosphate pH 7.2, 37 °C, 5% v/v DMSO, prodrug 0.1-20 mM.

The next experiment concerns the target T2, NfnB-cys (Escherichia coli, UniProt P38489).
T2 construct: gene nfsB; pET28a+ His-tag plus tag of 6 N-terminal cysteines, tags kept; E. coli Rosetta pLysS; FMN-loaded; approx. 28 kDa monomer on SDS-PAGE; free enzyme
Described as above. Particulars: read-out: Km μM, NADH 4 mM, 50 mM phosphate pH 7.2, 37 °C, 5% v/v DMSO, prodrug 0.1-20 mM. The class given is biochemical.

T2 sequence (P38489 whole entry): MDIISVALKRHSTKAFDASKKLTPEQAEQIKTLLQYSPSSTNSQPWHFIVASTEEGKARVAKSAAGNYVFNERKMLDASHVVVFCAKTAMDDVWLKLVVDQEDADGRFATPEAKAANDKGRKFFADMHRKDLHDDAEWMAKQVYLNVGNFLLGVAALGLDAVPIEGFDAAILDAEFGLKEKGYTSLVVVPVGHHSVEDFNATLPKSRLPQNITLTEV

Take `CS(=O)(=O)OCCN(CCBr)c1c(C(=O)NCCO)cc([N+](=O)[O-])cc1[N+](=O)[O-]` [PR-104A, 2-[N-(2-bromoethyl)-2-(2-hydroxyethylcarbamoyl)-4,6-dinitroanilino]ethylmethanesulfonate]: the Km in the experiment on YfkO-cys (text b40 prints 1935 μM) stood at 1900 ± 350 µM; at NfnB-cys (text b40 prints 3172 μM), 3100 ± 400 µM.
Take `O=C(NCCO)c1cc([N+](=O)[O-])cc([N+](=O)[O-])c1N(CCBr)CCBr` [SN27686]: the Km in the experiment on YfkO-cys was determined as 420 ± 120 µM; on NfnB-cys (text b40 prints 257 μM) it was 250 ± 80 µM.
